Results published in US5556744A, “Methods and compositions for diagnosing and treating certain HIV infected patients” (The Trustees of the University of Pennsylvania, priority 1994, dated 1996).

Test system: maternal HIV+ sera (antibodies)
Test: RIA / ELISA binding of maternal HIV+ sera to gp120 and gp41 peptides (Example 3)
Parameters: species or system human
Description: Radioimmunoassay (RIA) and enzyme-linked immunosorbent assay (ELISA) were performed by standard methodologies [E. Engvall, Meth. Immunol., 70:419-439 (1980); S. K. Pierce et al, J. Exp. Med., 144:1254-1262 (1976)]. Peptides were dissolved in 0.05M carbonate-bicarbonate buffer (pH 9.6) at a concentration of 10 μg/ml. Fifty μl (500 ng) of the peptides were immobilized in 96 well polyvinylchloride plates (Dynatech Laboratories, Inc.) overnight at 4° C. Plates were washed and non-specific sites were blocked with PBS containing 1% BSA overnight at 4° C.
Dilutions of HIV positive maternal sera were made in blocking buffer at dilutions of 1:50 and 1:500 and incubated in peptide coated plates overnight at 4° C. Plates were washed with PBS and incubated with 75,000 cpm of ^125 I-labelled goat anti-human IgG. The antibody was iodinated by a chloramine T method [W. V. Williams et al, Proc. Natl. Acad. Sci. USA, 85:6488-6492 (1988)]. Plates were washed, dried and counted in a gamma counter to measure specific binding. Normal human serum (i.e., HIV seronegative) was used as a control.
Alternatively, ELISA assays were performed in polystyrene plates (Dynatech Laboratories, Inc) in which 0.05% Tween 20 (Sigma Chemical Co.) was included in the washing, blocking and dilution buffers. The secondary antibody used was goat […] Ig conjugated to horseradish peroxidase (HRP) (Sigma Chemical Co). The substrate used for color development was 3,3',5,5' tetramethyl-benzidine dihydrochloride (TMB) (Sigma Chemical Co). Absorbance of samples was measured in a Dynatech MR5000 (Dynatech Laboratories, Inc.) plate reader and expressed as an optical density at wavelength of 450 nm (OD450).
The following key is used for the designation of specific binding of the maternal sera samples to the peptides: The minus sign, -, is equivalent to the specific OD450 or cpm of sera sample binding to peptide divided by the specific OD450 or cpm of NHS sample binding to peptide, which value is less than 2. The plus sign, +, is equivalent to the specific OD450 or cpm of sera sample binding to peptide divided by the specific OD450 or cpm of NHS sample binding to peptide, which value is between 2 to 3.
Specific binding is defined as the difference between the OD450 or cpm of sera to wells with peptide and the OD450 or cpm of sera to wells without peptide.
Comparisons of number of peptides which bound maternal serum samples were made between the transmission group and the nontransmission group. The data was analyzed using the unpaired student's test. For the determination of differences in the binding of specific peptides between transmission and non-transmission groups, the Spearman's rank-order correlation test was performed.

## KLICTTQVPWNASWS [Peptide 123]
Serum No. 1, Non-Transmission Group
  Binding of maternal HIV+ serum to peptide (sera/NHS ratio): + (which value is between 2 to 3)
Serum No. 2, Non-Transmission Group
  Binding of maternal HIV+ serum to peptide (sera/NHS ratio): - (specific OD450 or cpm of sera sample binding to peptide divided by the specific OD450 or cpm of NHS sample binding to peptide, which value is less than 2)
Serum No. 3, Non-Transmission Group
  Binding of maternal HIV+ serum to peptide (sera/NHS ratio): - (specific OD450 or cpm of sera sample binding to peptide divided by the specific OD450 or cpm of NHS sample binding to peptide, which value is less than 2)
Serum No. 4, Transmission Group
  Binding of maternal HIV+ serum to peptide (sera/NHS ratio): - (specific OD450 or cpm of sera sample binding to peptide divided by the specific OD450 or cpm of NHS sample binding to peptide, which value is less than 2)
Serum No. 5, Transmission Group
  Binding of maternal HIV+ serum to peptide (sera/NHS ratio): - (specific OD450 or cpm of sera sample binding to peptide divided by the specific OD450 or cpm of NHS sample binding to peptide, which value is less than 2)
Serum No. 6, Non-Transmission Group
  Binding of maternal HIV+ serum to peptide (sera/NHS ratio): - (specific OD450 or cpm of sera sample binding to peptide divided by the specific OD450 or cpm of NHS sample binding to peptide, which value is less than 2)
Serum No. 7, Non-Transmission Group
  Binding of maternal HIV+ serum to peptide (sera/NHS ratio): - (specific OD450 or cpm of sera sample binding to peptide divided by the specific OD450 or cpm of NHS sample binding to peptide, which value is less than 2)
Serum No. 8, Non-Transmission Group
  Binding of maternal HIV+ serum to peptide (sera/NHS ratio): - (specific OD450 or cpm of sera sample binding to peptide divided by the specific OD450 or cpm of NHS sample binding to peptide, which value is less than 2)
Serum No. 9, Non-Transmission Group
  Binding of maternal HIV+ serum to peptide (sera/NHS ratio): - (specific OD450 or cpm of sera sample binding to peptide divided by the specific OD450 or cpm of NHS sample binding to peptide, which value is less than 2)
Serum No. 10, Transmission Group
  Binding of maternal HIV+ serum to peptide (sera/NHS ratio): - (specific OD450 or cpm of sera sample binding to peptide divided by the specific OD450 or cpm of NHS sample binding to peptide, which value is less than 2)
Serum No. 11, Non-Transmission Group
  Binding of maternal HIV+ serum to peptide (sera/NHS ratio): - (specific OD450 or cpm of sera sample binding to peptide divided by the specific OD450 or cpm of NHS sample binding to peptide, which value is less than 2)
Serum No. 12, Non-Transmission Group
  Binding of maternal HIV+ serum to peptide (sera/NHS ratio): - (specific OD450 or cpm of sera sample binding to peptide divided by the specific OD450 or cpm of NHS sample binding to peptide, which value is less than 2)
Serum No. 13, Transmission Group
  Binding of maternal HIV+ serum to peptide (sera/NHS ratio): - (specific OD450 or cpm of sera sample binding to peptide divided by the specific OD450 or cpm of NHS sample binding to peptide, which value is less than 2)
Serum No. 14, Transmission Group
  Binding of maternal HIV+ serum to peptide (sera/NHS ratio): - (specific OD450 or cpm of sera sample binding to peptide divided by the specific OD450 or cpm of NHS sample binding to peptide, which value is less than 2)
Serum No. 15, Transmission Group
  Binding of maternal HIV+ serum to peptide (sera/NHS ratio): - (specific OD450 or cpm of sera sample binding to peptide divided by the specific OD450 or cpm of NHS sample binding to peptide, which value is less than 2)
Serum No. 16, Non-Transmission Group
  Binding of maternal HIV+ serum to peptide (sera/NHS ratio): - (specific OD450 or cpm of sera sample binding to peptide divided by the specific OD450 or cpm of NHS sample binding to peptide, which value is less than 2)
Serum No. 17, Non-Transmission Group
  Binding of maternal HIV+ serum to peptide (sera/NHS ratio): - (specific OD450 or cpm of sera sample binding to peptide divided by the specific OD450 or cpm of NHS sample binding to peptide, which value is less than 2)
Serum No. 18, Non-Transmission Group
  Binding of maternal HIV+ serum to peptide (sera/NHS ratio): - (specific OD450 or cpm of sera sample binding to peptide divided by the specific OD450 or cpm of NHS sample binding to peptide, which value is less than 2)
Serum No. 19, Transmission Group
  Binding of maternal HIV+ serum to peptide (sera/NHS ratio): - (specific OD450 or cpm of sera sample binding to peptide divided by the specific OD450 or cpm of NHS sample binding to peptide, which value is less than 2)
Serum No. 20, Non-Transmission Group
  Binding of maternal HIV+ serum to peptide (sera/NHS ratio): - (specific OD450 or cpm of sera sample binding to peptide divided by the specific OD450 or cpm of NHS sample binding to peptide, which value is less than 2)
